How the values were obtained:
telomerase = assay: Telomerase activity (TRAP) in vitro, MASMs of arteriosclerosis models; type: cell-based, mouse; conditions: MASMs of ApoE−/− control group, cultured 1 day with SL
Protocol: In FIG. 20, the telomerase activity was measured using TRAP protocol (Wright et al., 1995). In summary, cell pellets were lysed in CHAPS lysis solvent (containing ribonuclease inhibitor), followed by incubation at 4° C. for 30 minutes. Cell extracts ([…]) were TRAPeze reaction mix (telomerase substrate (TS) primer, fluorescent-labeled RP (reverse) primer, control standard template, and sulforhodamine-labeled standard K2 primer). The TS primer was elongated at 30° C. for 30 minutes, and then PCR was performed. The fluorescence of the thus obtained TRAP product was measured using a fluorescent plate reader to quantify telomerase activity. Relative telomerase activity was normalized by the ratio of native […] to sulforhodamine (internal control standard), expressed as a percentage. Fluorescein (M0250) was purchased from Marker Gene Technologies, Inc. H2-dichlorofluorescin diacetate (DCFDA) was purchased from Molecular Probes. MitoSOX™ Red, MitoTracker Green FM, and MitoTracker® Orange CMTMRos (MTO) were purchased from Invitrogen. 10,000× SYBR® Gold dye was purchased from Molecular Probes, Inc. Nuclear/Cytosol fractionation kit (K266-100) was purchased from BioVision. TRAPeze® XL telomerase detection kit (S7707) was purchased from MILLIPORE. Telomere PNA FISH Kit/Cy3 (K5326) was purchased from Dako. […]

[1] = tested on: ob mouse (C57BL/6J-ob/ob) models; assay: Topical fat removal by meso roller administration in ob mouse models; type: in vivo; conditions: 0.1 M SL, meso roller on day 0 and day 4, observed on day 7
Protocol: In addition, in the ob mouse (C57BL/6J-ob/ob) models fed with a high-fat diet without SL treatment, the topical fat removal effect by SL (3′-SL & 6′-SL) administration using a meso roller (0.5 mm, INTO MR, Intomedi Inc.) was investigated. Specifically, the hairs on the dorsal side of the […] were shaved, and 0.1 M SL in the saline buffer was applied to the skin, and was absorbed into the skin by rubbing with the meso roller. The control group was tested by the same method except that the buffer was used without SL. […] In FIG. 15, 3′-SL, 6′-SL, and CTL represent the 3′-SL administration group, the 6′-SL administration group, and the control group, respectively. After feeding with a high-fat diet for 10 weeks, SL (3′-SL & 6′-SL) compositions were topically administered on day 0 and day 4 using the meso roller, and then dermoscopy observation was conducted on day 7. The observation results are shown.

[2] = tested on: Huntington's disease model mice (R6/2); assay: Rotarod travel test in Huntington's disease models; type: in vivo, mouse; conditions: R6/2 mice, oral 0.1 mg/kg/day
Source text: In order to investigate the changes in gene expression and cognitive ability by the treatment with SL (3′-SL & 6′-SL) compositions in Huntington's brain disease model, 4-week-old mice were purchased from Central Lab Animal (Korea). Water was freely accessible, and a commercially available pellet feed (Dooyeul Biotech, Korea) was given for one week. At 5 weeks of age, the mice were divided into three groups (composed of eight mice for each group): Eight 5-week-old male c57/BL6 mice (normal mice; initial body weight, average 25.3±4.3 g) treated with a normal diet were used for a control group. […]
In addition, the behavior improvement was evaluated through the rotarod travel time changes of the (Huntington's disease model) group, (Huntington's disease model+3′-SL) group, and (Huntington's disease model+6′-SL) group, compared with the normal mouse with a normal diet. […] The rotarod travel time was measured by using a rotarod device (rod accelerating at a revolution speed of 4-40 rpm through 3 minutes, Jungdo Instruments, Korea). After 4-week-old mice were practiced on the rotarod test, the rotarod test was performed from 5 weeks of age, and the mean time to fall was measured. […]

Row | SMILES | telomerase activity in MASMs (in vitro) (telomerase) | topical fat removal (dermoscopy) vs negative control portion [1] | rotarod travel time vs SL non-administration group [2]
1 | CC(=O)N[C@H]1[C@H]([C@H](O)[C@H](O)CO)O[C@@](O[C@H]2[C@@H](O)[C@@H](CO)O[C@@H](O[C@H]3[C@H](O)[C@@H](O)C(O)O[C@@H]3CO)[C@@H]2O)(C(=O)O)C[C@@H]1O (stereo partly drawn) [3′-SL, α-NeuNAc-(2→3)-β-D-Gal-(1→4)-D-Glc] | increased telomerase activity | relatively low compared with 6′-SL | less than that of 6′-SL
2 | CC(=O)N[C@H]1[C@H]([C@H](O)[C@H](O)CO)O[C@@](OC[C@H]2O[C@@H](O[C@H]3[C@H](O)[C@@H](O)[C@H](O)O[C@@H]3CO)[C@H](O)[C@@H](O)[C@H]2O)(C(=O)O)C[C@@H]1O [6′-SL, α-NeuNAc-(2→6)-β-D-Gal-(1→4)-D-Glc] | increased telomerase activity | topical fat was removed | increased

— US20190030053A1, “COMPOSITION FOR INCREASING EXPRESSION OF PGC-1alpha” (BENEBIOSIS CO., LTD., priority 2016, published 2019)
